Article PMC7658267, “Effects of CYP46A1 Inhibition on Long-Term-Depression in Hippocampal Slices ex vivo and 24S-Hydroxycholesterol Levels in Mice in vivo” (Frontiers in Molecular Neuroscience, 2020)

Tests used:
Set-up in all cases: CEREP off-target binding panel, per cent inhibition at 10 uM, n = 2
[1] = target: T1, Human dopamine transporter (Homo sapiens, UniProt Q01959); assay: biochemical
T1 construct: gene SLC6A3

Human 5-HT5A = target: T2, Human 5-HT5A (Homo sapiens, UniProt P47898); assay: biochemical
T2 construct: gene HTR5A

Human VPAC1 = target: T3, Human VPAC1 (Homo sapiens, UniProt P32241); assay: biochemical
T3 construct: gene VIPR1

Human 5-HT2B = target: T4, Human 5-HT2B (Homo sapiens, UniProt P41595); assay: biochemical
T4 construct: gene HTR2B

Human MC4 = target: T5, Human MC4 (Homo sapiens, UniProt P32245); assay: biochemical
T5 construct: gene MC4R

Human V1a = target: T6, Human V1a (Homo sapiens, UniProt P37288); assay: biochemical
T6 construct: gene AVPR1A

Human NOP = target: T7, Human NOP (Homo sapiens, UniProt P41146); assay: biochemical
T7 construct: gene OPRL1

Human CCR1 = Human CCR1 (Homo sapiens, UniProt P32246); assay: biochemical
Human GR = target: T8, Human GR (Homo sapiens, UniProt P04150); assay: biochemical
T8 construct: gene NR3C1

Human DOP = target: T9, Human DOP (Homo sapiens, UniProt P41143); assay: biochemical
T9 construct: gene OPRD1

Human 5-HT1A = target: T10, Human 5-HT1A (Homo sapiens, UniProt P08908); assay: biochemical
T10 construct: gene HTR1A

Human CXCR2 = Human CXCR2 (Homo sapiens, UniProt P25025); assay: biochemical
Human H3 = target: T11, Human H3 (Homo sapiens, UniProt Q9Y5N1); assay: biochemical
T11 construct: gene HRH3

Human PXR = target: T12, Human PXR (Homo sapiens, UniProt O75469); assay: in vitro
T12 construct: gene NR1I2

Human A2A = target: T13, Human A2A (Homo sapiens, UniProt P29274); assay: biochemical
T13 construct: gene ADORA2A

Human M3 = target: T14, Human M3 (Homo sapiens, UniProt P20309); assay: biochemical
T14 construct: gene CHRM3

Human AR = Human AR (Homo sapiens, UniProt P10275); assay: biochemical
Human MOP = target: T15, Human MOP (Homo sapiens, UniProt P35372); assay: biochemical
T15 construct: gene OPRM1

Human 5-HT7 = target: T16, Human 5-HT7 (Homo sapiens, UniProt P34969); assay: biochemical
T16 construct: gene HTR7

Human Y1 = target: T17, Human Y1 (Homo sapiens, UniProt P25929); assay: biochemical
T17 construct: gene NPY1R

Human A3 = target: T18, Human A3 (Homo sapiens, UniProt P0DMS8); assay: biochemical
T18 construct: gene ADORA3

Human D2s = target: T19, Human D2s (Homo sapiens, UniProt P14416); assay: biochemical
T19 construct: gene DRD2; D2s

Human KOP = target: T20, Human KOP (Homo sapiens, UniProt P41145); assay: biochemical
T20 construct: gene OPRK1

Human NK2 = target: T21, Human NK2 (Homo sapiens, UniProt P21452); assay: biochemical
T21 construct: gene TACR2

Human β2 = target: T22, Human β2 (Homo sapiens, UniProt P07550); assay: biochemical
T22 construct: gene ADRB2

Human 5-HT transporter = target: T23, Human 5-HT transporter (Homo sapiens, UniProt P31645); assay: biochemical
T23 construct: gene SLC6A4

Human CXCR2, sequence (P25025 whole entry): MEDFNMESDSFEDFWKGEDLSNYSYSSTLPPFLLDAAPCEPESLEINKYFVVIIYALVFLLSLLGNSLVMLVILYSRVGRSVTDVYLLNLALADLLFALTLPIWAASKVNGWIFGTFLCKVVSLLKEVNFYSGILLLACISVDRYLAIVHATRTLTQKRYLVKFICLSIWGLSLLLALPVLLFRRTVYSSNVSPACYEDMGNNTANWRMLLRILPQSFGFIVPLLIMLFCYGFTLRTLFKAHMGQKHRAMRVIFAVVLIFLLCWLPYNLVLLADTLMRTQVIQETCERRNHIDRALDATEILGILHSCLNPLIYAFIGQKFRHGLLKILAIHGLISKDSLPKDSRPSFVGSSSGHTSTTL
T10 sequence (P08908 whole entry): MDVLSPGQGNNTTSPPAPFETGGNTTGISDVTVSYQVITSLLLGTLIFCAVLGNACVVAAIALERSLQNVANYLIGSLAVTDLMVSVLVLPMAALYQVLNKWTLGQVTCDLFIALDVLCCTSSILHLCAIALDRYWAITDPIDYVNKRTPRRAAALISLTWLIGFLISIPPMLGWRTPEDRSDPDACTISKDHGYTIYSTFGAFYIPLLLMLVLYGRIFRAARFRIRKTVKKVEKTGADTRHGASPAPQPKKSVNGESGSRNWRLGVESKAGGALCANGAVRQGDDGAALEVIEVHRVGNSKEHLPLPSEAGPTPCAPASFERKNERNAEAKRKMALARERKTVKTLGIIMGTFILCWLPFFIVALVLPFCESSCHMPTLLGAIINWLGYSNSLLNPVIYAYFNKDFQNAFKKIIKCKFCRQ
T2 sequence (P47898 whole entry): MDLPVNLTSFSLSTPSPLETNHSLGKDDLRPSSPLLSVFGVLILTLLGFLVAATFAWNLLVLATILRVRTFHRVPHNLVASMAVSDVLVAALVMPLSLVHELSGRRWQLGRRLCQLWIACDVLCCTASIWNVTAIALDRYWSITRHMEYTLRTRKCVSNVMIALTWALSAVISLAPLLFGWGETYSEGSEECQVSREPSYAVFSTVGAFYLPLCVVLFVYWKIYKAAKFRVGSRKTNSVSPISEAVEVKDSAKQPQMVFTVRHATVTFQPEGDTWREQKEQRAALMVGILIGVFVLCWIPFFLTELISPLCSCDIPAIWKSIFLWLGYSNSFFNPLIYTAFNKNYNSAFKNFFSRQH
T13 sequence (P29274 whole entry): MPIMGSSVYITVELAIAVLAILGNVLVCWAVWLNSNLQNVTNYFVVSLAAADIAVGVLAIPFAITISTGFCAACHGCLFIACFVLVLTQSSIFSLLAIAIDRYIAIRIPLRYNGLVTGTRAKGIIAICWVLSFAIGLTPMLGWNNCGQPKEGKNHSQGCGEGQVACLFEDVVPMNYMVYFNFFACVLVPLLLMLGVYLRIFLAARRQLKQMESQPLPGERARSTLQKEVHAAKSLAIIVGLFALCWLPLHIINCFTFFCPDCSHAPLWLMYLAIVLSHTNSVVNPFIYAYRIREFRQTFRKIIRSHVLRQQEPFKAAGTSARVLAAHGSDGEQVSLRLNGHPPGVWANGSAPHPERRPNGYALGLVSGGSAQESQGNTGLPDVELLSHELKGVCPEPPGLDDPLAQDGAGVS
T11 sequence (Q9Y5N1 whole entry): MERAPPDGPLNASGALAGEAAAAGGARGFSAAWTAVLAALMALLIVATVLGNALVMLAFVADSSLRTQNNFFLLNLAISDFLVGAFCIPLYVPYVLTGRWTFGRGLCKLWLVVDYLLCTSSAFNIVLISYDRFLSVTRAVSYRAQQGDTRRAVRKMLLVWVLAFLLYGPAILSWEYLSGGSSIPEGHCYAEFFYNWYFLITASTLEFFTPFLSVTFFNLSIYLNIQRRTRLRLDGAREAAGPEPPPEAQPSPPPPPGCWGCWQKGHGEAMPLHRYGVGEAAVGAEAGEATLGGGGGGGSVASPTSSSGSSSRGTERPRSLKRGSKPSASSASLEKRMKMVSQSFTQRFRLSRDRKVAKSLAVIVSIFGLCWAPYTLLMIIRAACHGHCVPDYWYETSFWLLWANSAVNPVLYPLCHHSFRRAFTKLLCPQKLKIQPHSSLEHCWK
T19 sequence (P14416 whole entry): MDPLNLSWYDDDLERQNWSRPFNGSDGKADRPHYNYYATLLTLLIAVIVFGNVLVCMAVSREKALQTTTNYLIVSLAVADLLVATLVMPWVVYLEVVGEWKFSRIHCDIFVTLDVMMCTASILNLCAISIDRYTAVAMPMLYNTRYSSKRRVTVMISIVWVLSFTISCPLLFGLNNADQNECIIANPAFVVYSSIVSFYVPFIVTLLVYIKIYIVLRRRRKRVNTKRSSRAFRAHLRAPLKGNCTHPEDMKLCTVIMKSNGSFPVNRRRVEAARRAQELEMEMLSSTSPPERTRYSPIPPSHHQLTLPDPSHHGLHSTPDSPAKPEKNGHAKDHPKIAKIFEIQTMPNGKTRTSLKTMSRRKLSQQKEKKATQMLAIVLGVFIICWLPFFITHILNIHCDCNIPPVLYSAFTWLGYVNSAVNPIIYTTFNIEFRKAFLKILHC
T20 sequence (P41145 whole entry): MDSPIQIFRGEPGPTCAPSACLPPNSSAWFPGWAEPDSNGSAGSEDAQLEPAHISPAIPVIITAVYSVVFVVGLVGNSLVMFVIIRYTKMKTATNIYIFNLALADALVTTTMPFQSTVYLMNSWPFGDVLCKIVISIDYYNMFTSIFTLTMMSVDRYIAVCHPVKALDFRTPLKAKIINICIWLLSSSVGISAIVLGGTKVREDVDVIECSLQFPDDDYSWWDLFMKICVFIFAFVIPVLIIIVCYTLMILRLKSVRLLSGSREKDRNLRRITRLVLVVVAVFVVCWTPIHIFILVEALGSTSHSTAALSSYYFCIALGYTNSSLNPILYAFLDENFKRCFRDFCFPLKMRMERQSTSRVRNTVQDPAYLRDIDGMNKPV
T15 sequence (P35372 whole entry): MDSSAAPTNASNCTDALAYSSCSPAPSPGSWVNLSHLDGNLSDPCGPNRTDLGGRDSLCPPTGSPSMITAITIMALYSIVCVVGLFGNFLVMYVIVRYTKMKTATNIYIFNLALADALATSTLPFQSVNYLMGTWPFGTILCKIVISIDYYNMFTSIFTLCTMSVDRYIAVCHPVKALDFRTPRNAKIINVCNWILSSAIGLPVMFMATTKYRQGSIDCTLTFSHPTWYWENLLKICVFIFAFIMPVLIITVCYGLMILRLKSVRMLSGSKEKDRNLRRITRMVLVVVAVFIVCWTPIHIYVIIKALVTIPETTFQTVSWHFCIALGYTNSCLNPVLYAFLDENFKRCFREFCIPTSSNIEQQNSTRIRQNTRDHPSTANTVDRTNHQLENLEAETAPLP
T4 sequence (P41595 whole entry): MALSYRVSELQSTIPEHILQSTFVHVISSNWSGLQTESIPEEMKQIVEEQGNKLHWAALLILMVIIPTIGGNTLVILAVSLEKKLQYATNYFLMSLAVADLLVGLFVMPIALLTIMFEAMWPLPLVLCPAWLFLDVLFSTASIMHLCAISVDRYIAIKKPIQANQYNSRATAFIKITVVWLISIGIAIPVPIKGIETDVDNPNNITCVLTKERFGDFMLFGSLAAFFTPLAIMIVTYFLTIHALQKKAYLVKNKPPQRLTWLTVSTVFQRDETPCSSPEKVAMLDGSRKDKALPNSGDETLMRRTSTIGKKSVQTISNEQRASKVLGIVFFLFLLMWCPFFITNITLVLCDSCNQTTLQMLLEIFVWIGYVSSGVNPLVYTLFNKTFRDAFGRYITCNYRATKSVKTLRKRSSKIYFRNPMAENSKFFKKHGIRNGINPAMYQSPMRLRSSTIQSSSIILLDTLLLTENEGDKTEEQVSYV
T17 sequence (P25929 whole entry): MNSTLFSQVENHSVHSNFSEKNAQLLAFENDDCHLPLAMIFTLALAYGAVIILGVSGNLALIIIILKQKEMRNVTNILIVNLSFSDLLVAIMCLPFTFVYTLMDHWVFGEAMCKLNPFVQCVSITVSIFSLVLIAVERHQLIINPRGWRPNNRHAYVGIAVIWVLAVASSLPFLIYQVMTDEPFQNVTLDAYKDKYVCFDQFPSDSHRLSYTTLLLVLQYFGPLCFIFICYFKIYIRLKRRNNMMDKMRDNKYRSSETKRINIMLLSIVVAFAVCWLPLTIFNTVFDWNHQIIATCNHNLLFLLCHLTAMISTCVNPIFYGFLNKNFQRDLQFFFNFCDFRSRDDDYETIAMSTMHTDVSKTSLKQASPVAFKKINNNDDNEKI
T14 sequence (P20309 whole entry): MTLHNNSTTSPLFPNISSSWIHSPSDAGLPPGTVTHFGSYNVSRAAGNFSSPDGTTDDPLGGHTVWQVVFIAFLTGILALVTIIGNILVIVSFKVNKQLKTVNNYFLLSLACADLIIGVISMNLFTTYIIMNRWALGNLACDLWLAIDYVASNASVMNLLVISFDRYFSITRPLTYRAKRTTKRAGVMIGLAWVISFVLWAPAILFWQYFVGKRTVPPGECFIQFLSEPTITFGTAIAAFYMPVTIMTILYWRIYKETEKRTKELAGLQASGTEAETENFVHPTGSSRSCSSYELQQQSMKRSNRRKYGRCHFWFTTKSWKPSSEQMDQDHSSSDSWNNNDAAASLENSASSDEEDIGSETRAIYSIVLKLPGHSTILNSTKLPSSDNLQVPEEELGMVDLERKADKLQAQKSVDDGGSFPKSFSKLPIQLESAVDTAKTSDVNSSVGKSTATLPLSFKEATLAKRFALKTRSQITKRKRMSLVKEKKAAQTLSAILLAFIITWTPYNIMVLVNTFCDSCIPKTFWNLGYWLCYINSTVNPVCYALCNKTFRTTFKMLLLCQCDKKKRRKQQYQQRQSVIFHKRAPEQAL

## O=C(c1cccnc1-c1ccncn1)N1CCC(O)(Cc2ccc(F)cc2)CC1 [compound 2, (4-(4-fluorobenzyl)-4-hydroxypiperidin-1-yl)(2-(pyrimidin-4-yl)pyridin-3-yl)methanone]
[1]
  inhibition at 10 µM: 13.8%
Human 5-HT5A
  inhibition at 10 µM: 9.6%
Human VPAC1
  inhibition at 10 µM: -1.9%
Human 5-HT2B
  inhibition at 10 µM: -2.4%
Human MC4
  inhibition at 10 µM: 9.8%
Human V1a
  inhibition at 10 µM: 2.8%
Human NOP
  inhibition at 10 µM: 0.6%
Human CCR1
  inhibition at 10 µM: -1.7%
Human GR
  inhibition at 10 µM: -0.6%
Human DOP
  inhibition at 10 µM: -5.8%
Human 5-HT1A
  inhibition at 10 µM: 10.8%
Human CXCR2
  inhibition at 10 µM: -1.5%
Human H3
  inhibition at 10 µM: -14.7%
Human PXR
  inhibition at 10 µM: 8.8%
Human A2A
  inhibition at 10 µM: -2.6%
Human M3
  inhibition at 10 µM: 7.3%
Human AR
  inhibition at 10 µM: 3.1%
Human MOP
  inhibition at 10 µM: 2.5%
Human 5-HT7
  inhibition at 10 µM: 4.2%
Human Y1
  inhibition at 10 µM: -16.3%
Human A3
  inhibition at 10 µM: 5.4%
Human D2s
  inhibition at 10 µM: -15.4%
Human KOP
  inhibition at 10 µM: -5.2%
Human NK2
  inhibition at 10 µM: -1.4%
Human β2
  inhibition at 10 µM: -2%
Human 5-HT transporter
  inhibition at 10 µM: 0.1%

## O=C(c1cnc2c(-c3cnco3)cc(C(F)(F)F)cn12)N1C2CCC1COC2 [compound 1, (3-oxa-8-azabicyclo[3.2.1]octan-8-yl)(8-(oxazol-5-yl)-6-(trifluoromethyl)imidazo[1,2-a]pyridin-3-yl)methanone]
[1]
  inhibition at 10 µM: 2.1%
Human 5-HT5A
  inhibition at 10 µM: -12.5%
Human VPAC1
  inhibition at 10 µM: 5.5%
Human 5-HT2B
  inhibition at 10 µM: -2.8%
Human MC4
  inhibition at 10 µM: 4.5%
Human V1a
  inhibition at 10 µM: -7.4%
Human NOP
  inhibition at 10 µM: 1.4%
Human CCR1
  inhibition at 10 µM: 2.6%
Human GR
  inhibition at 10 µM: -8.6%
Human DOP
  inhibition at 10 µM: -6.2%
Human 5-HT1A
  inhibition at 10 µM: 12.4%
Human CXCR2
  inhibition at 10 µM: -11.3%
Human H3
  inhibition at 10 µM: -3.3%
Human PXR
  inhibition at 10 µM: 4.8%
Human A2A
  inhibition at 10 µM: 1.1%
Human M3
  inhibition at 10 µM: -9.1%
Human AR
  inhibition at 10 µM: -2%
Human MOP
  inhibition at 10 µM: -0.7%
Human 5-HT7
  inhibition at 10 µM: 5.4%
Human Y1
  inhibition at 10 µM: -2.9%
Human A3
  inhibition at 10 µM: 23.3%
Human D2s
  inhibition at 10 µM: -15.2%
Human KOP
  inhibition at 10 µM: 8%
Human NK2
  inhibition at 10 µM: -7.9%
Human β2
  inhibition at 10 µM: -8.1%
Human 5-HT transporter
  inhibition at 10 µM: 1.2%
